Experimental data: US4443438A (priority 1978, dated 1984)
Where two headings read alike, the source gives them in different places.

Columns and labels:
[1] = Fish toxicity to carps, TLm48 (Experimental example 6); assay type: in vivo; settings: carp, in vivo, read-out: TLm48 (ppm)
Experimental: (§1) Ten liters of the dilute solution was placed in a 10-liter glass vessel and 10 carps were liberated therein. After 48 hours, the dead and alive were examined to calculate TLm48 (ppm).

[2] = test system: green rice leafhoppers (Nephotettix cincticeps); experiment: Density index of green rice leafhopper adults in paddy field, sweeping method (Experimental example 1); assay type: in vivo; settings: 3 kg/10 are, untreated = 100
[3] = test system: pesticide-resistant green rice leafhopper (Nephotettix cincticeps); experiment: whole plant or invertebrate; assay type: in vivo; settings: for mortality at 0.0125 % / mortality at 0.0225 %: Nephotettix cincticeps, 24 h, read-out: Mortality (%) after 24 hours
Experimental: The dilute solution was sprayed on rice plants in a 180-ml plastic cup at a rate of 15 cc/3 cups by means of a turn table. After air-drying, the treated rice plants were placed in a 5-liter beaker which was then covered with gauze. About 15 female adults of pesticide-resistant green rice leafhopper (Nephotettix cincticeps) were released in the beaker. After 3 hours, the knock-down ratio was examined, and after 24 hours the mortality was examined.

[4] = in vivo; settings: mouse, po
[5] = test system: rice stem borer (Chilo suppressalis); experiment: Mortality of rice stem borer on dusted rice plants (Experimental example 4); assay type: in vivo; settings: 3 kg/10 are, five days after application, 7200 min
Text: About 50 eggs just before hatch of rice stem borer (Chilo suppressalis) were put on rice plants at the tiller stage cultivated in a 1/5,000 are Wagner's pot. After 5 days, the dust (1) prepared in Preparation example 2 was applied thereto at a rate of 3 kg/10are by means of a Bell jar duster. Five days after application, the rice stem was dissected to observe the dead and alive of rice stem borers.

[6] = test system: pesticide-resistant green rice leafhopper (Nephotettix cincticeps); experiment: Mortality of pesticide-resistant green rice leafhopper on dusted rice plants (Experimental example 3); assay type: in vivo; settings: 2 kg/10 are
Experimental: The dusts (36), (37), (39), (43), (47) or (48) prepared in Preparation example 2 were each applied by means of a Bell jar duster to rice plants in a 1/10,000 are Wagner's pot at a rate of 2 kg/10 are. The treated pot was placed in a cylinder (diameter 20 cm, height 60 cm) which was then covered with gauze. About 30 female adults of pesticide-resistant green rice leafhopper (Nephotettix cincticeps) were liberated therein. After 24 hours, the mortality was examined.

[7] = test system: harmful organisms; settings: reported in Published Unexamined Japanese Patent Application No. 125145/1977; cited from earlier work
[8] = test system: carps; experiment: Fish toxicity to carps, TLm48 (Experimental example 6); assay type: in vivo; settings: as 0.3% dust; 48 hours
Experimental: as §1

[9] = 25% wettable powder, diluted 2,000 times
[10] = as 20% wettable powder, diluted 25,000 times

CNC(=O)Oc1ccccc1OC(C)C [PHC, 2-Isopropoxyphenyl N-methylcarbamate]
LC50 at 48 h ([1]; as 0.3% dust): > 5 µg/mL

CCOP(=S)(OCC)Oc1cc(C)nc(C(C)C)n1 [Diazinon, O,O-Diethyl O-(2-isopropyl-4-methyl-6-pyrimidinyl)phosphorothioate]
Density index After 2 days ([2]; as 5% dust): 20
Density index After 15 days ([2]; as 5% dust): 35
LC50 at 48 h ([1]; as 0.3% dust): > 5 µg/mL

CCC(C)c1ccccc1OC(=O)NC (centres unmarked) [BPMC, 2-sec-Butylphenyl N-methylcarbamate]
Knock-down ratio (%) after 3 hours [3, 9]: 3%
mortality at 0.0125 % [3, 9]: 3%

CC1(C)[C@H](C=C(Cl)Cl)[C@H]1C(=O)OC(C#N)c1cccc(Oc2ccc(Br)cc2)c1 (relative stereo) [Compound of the formula (I) [dl(acid moiety)-trans isomer], m-(p-bromophenoxy)-α-cyanolbenzyl trans- or trans-rich-2,2-dimethyl-3-(2,2-dichlorovinyl)cyclopropanecarboxylate]
LD50 at 24 h [4]: > 2000 mg/kg
Mortality (%) ([5]; as 0.1% dust): 20%
Density index After 2 days ([2]; as 0.1% dust): 3
Density index After 15 days ([2]; as 0.1% dust): 18
LC50 at 48 h ([1]; as 0.1% dust): > 5 µg/mL

CC1(C)C(C=C(Cl)Cl)C1C(=O)OC(C#N)c1cccc(Oc2ccc(Br)cc2)c1 (racemic)
Knock-down ratio (%) after 3 hours [3, 10]: 50%
Mortality (%) after 24 hours [3, 10]: 80%

CC(C)OP(=O)(OC(C)C)SCc1ccccc1 [IBP, O,O-Diisopropyl S-benzylphosphorothioate]
mortality at 0.0225 % [3]: 0%
Knock-down ratio (%) after 3 hours ([3]; in vivo): 0%
LC50 at 48 h ([1]; as 0.3% dust): > 5 µg/mL

CNC(=O)Oc1ccc(C)c(C)c1 [MPMC, 3,4-Xylyl N-methylcarbamate]
Knock-down ratio (%) after 3 hours [3, 9]: 10%
mortality at 0.0125 % [3]: 10%
Density index After 2 days ([2]; as 3% dust): 7
Density index After 15 days ([2]; as 3% dust): 60

CNC(=O)Oc1cccc(C)c1 [MTMC, m-Tolyl N-methylcarbamate]
Mortality (%) after 24 hours ([6]; as 2% dust): 30%

CC1(C)C(C=C(Cl)Cl)C1C(=O)OC(C#N)c1cccc(Oc2ccc(Br)cc2)c1 (stereo not drawn) [compound of the formula (I), m-(p-bromophenoxy)-α-cyanolbenzyl trans- or trans-rich-2,2-dimethyl-3-(2,2-dichlorovinyl)cyclopropanecarboxylate]
insecticidal and acaricidal activity [7]: has insecticidal and acaricidal activity

m-Isopropylphenoxy N-methylcarbamate [MIPC]
TLm48 (ppm) [8]: > 5 ppm

COP(=S)(OC)Oc1ccc([N+](=O)[O-])c(C)c1 [Sumithion, O,O-Dimethyl O-(3-methyl-4-nitrophenyl)phosphorothioate]
Mortality (%) after 24 hours ([6]; as 2% dust): 10%
LD50 at 24 h [4]: > 1000 mg/kg
mortality at 0.0225 % [3]: 15%
Knock-down ratio (%) after 3 hours ([3]; in vivo): 0%
Mortality (%) ([5]; as 3% dust): 70%
Density index After 2 days ([2]; as 5% dust): 60
Density index After 15 days ([2]; as 5% dust): 95

CCCOP(=O)(OCCC)Oc1ccc(SC)cc1 [Kayaphos, O,O-Di-n-propyl p-methylthiophenylphosphate]
Mortality (%) after 24 hours ([6]; as 2% dust): 43%

CNC(=O)Oc1cccc2ccccc12 [NAC, 1-Naphthyl N-methylcarbamate]
mortality at 0.0125 % [3]: 10%

CC1(C)C(C=C(Cl)Cl)C1C(=O)OC(C#N)c1cccc(Oc2ccc(Br)cc2)c1 (racemic) [m-(p-bromophenoxy)-α-cyanolbenzyl trans- or trans-rich-2,2-dimethyl-3-(2,2-dichlorovinyl)cyclopropanecarboxylate]
Mortality (%) after 24 hours ([6]; as 0.05% dust): 85%
LD50 at 24 h [4]: > 2000 mg/kg
Density index After 2 days ([2]; as 0.1% dust): 5
Density index After 15 days ([2]; as 0.1% dust): 25

COP(=S)(OC)Oc1ccc(SC)c(C)c1 [Baycid, O,O-Dimethyl O-[3-methyl-4-(methylthio)phenyl]thiophosphate]
mortality at 0.0225 % [3]: 20%
Knock-down ratio (%) after 3 hours ([3]; in vivo): 0%
